In paper PMC9608462 (Molecules, 2022):
Like-named read-outs stand apart in the source and are kept apart here.

Key:
human ERα = molecular target: T1, human ERα (Homo sapiens, UniProt P03372); experiment: Fluorescence polarization ER/D22 coactivator-peptide assay, ERα; assay type: biochemical; settings: for agonistic/antagonistic activity for ERα: fluorescence polarisation, recombinant receptor; for EC50: recombinant human ERα, D22 peptide, 1 h
T1 construct: purchased Panvera (Göttingen, Germany)
T1 sequence (P03372 1-595): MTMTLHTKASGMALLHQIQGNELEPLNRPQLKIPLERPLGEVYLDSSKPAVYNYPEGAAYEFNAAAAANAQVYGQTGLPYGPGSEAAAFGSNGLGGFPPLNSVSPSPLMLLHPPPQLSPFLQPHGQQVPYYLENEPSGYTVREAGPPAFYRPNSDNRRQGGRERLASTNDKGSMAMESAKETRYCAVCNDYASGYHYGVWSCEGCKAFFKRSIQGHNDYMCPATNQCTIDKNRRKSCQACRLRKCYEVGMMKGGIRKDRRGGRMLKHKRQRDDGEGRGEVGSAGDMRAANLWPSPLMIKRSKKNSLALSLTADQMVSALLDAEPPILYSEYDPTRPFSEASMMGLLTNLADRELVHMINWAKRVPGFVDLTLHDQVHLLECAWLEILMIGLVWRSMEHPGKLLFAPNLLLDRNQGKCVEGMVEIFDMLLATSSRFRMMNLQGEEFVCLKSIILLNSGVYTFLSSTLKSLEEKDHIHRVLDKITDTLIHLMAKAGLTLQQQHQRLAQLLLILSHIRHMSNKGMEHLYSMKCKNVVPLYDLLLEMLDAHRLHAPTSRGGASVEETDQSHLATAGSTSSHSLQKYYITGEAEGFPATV
Procedure: (§1) Binding affinities to ERα and ERβ were determined by the dose dependence binding of the test compounds with purified human Erα and Erβ. All chemicals were obtained from Panvera (Göttingen, Germany). The assay was performed according to the protocols recommended by the manufacturer. […] D22 is a coactivator-like peptide containing an LXXLL motif and flanking sequences that resemble known coactivators. Agonist-bound ER (ERα or ERβ) can recruit D22, resulting in a more significant fraction of bound D22 and a larger polarization value. Antagonist-bound ER has a lower affinity for D22, yielding a more significant fraction of unbound D22 and a lower polarization value. Recombinant human ERα or ERβ were incubated with the tested compounds for one hour. Fluorescence polarization was measured using a Tecan Ultra Evolution multiwell plate reader (Tecan, Crailsheim, Germany) at excitation wavelength 540 nm and emission wavelength 580 nm. […] The EC50 values were derived by logarithmic curve-fitting from binding curves using GraphPad Prism 8.4.3. GraphPad Software, San Diego, California, USA. EC50 was determined from at least three independent experiments.

human ERβ = molecular target: T2, human ERβ (Homo sapiens, UniProt Q92731); experiment: Fluorescence polarization ER/D22 coactivator-peptide assay, ERβ; assay type: biochemical; settings: for agonistic/antagonistic activity for ERβ: fluorescence polarisation, recombinant receptor; for EC50: recombinant human ERβ, D22 peptide, 1 h
T2 construct: purchased Panvera (Göttingen, Germany)
Procedure: as §1

Ishikawa cells = Ishikawa cells proliferation (alkaline phosphatase activity); assay type: cell-based, human; settings: for alkaline phosphatase activity of Ishikawa cells: 10^3–10^4 nM; for alkaline phosphatase activity of Ishikawa cells / alkaline phosphatase activity / proliferation of Ishikawa cells: 72 h; for alkaline phosphatase activity / proliferation of Ishikawa cells: 10–100 nM
Procedure: The estrogen-stimulated proliferation of Ishikawa cells was performed according to Wober and coworkers with some modifications: Ishikawa cells were seeded at a density of 5 × 10^3 cells/well in 96-well plates in phenol red-free DMEM/F12 containing 10% charcoal dextran-treated FBS. After 72 h, cells were washed with PBS and kept in the same media for the next 24 h. Then, the medium was changed, and cells were incubated with the tested compounds at concentrations ranging from 10^1 to 10^4 nM for 72 h. As a positive control, E2 at a concentration of 1 nM was used. […] The treated cells were grown for 72 h. The estrogenic stimulation was evaluated by alkaline phosphatase activity. After incubation, the cells were washed with PBS, and the plates were frozen at −20 °C until analysis. After thawing, the plates were warmed in a water bath up to 22 °C and incubated with the p-Nitrophenyl Phosphate Liquid Substrate System (Sigma-Aldrich). This ready-to-use, single-solution reagent contains p-nitrophenyl phosphate, buffer and the necessary magnesium cations. Alkaline phosphatase releases p-nitrophenol, measured kinetically at 405 nm using plate reader Biotek Instruments, Elx-800, Winooski, VT, USA).

MCF-7 cells = MCF-7 cells proliferation (Hoechst 33258 DNA fluorescence); assay type: cell-based, human; settings: for DNA level / DNA synthesis of MCF-7 cells: 10^3–10^4 nM
Procedure: The estrogen-stimulated proliferation of MCF-7 cells was performed using Hoechst 33258 DNA staining. […] After 24 h, cells were washed with PBS and kept in the same media for the next 48 h. Then, cells were incubated with tested compounds at concentrations ranging from 10^1 to 10^4 nM for 96 h. E2 at 1 nM and 10 nM was used as a positive control. […] Proliferation was assessed by the fluorometric measurement of DNA. For this purpose, cells were washed with PBS, lysed using EDTA (0.5 mL, […], pH 12.3) at 37 °C for 30 min and neutralized with 10 mM KH2PO4, and then, Hoechst 33258 (1 mg/mL) was added. Excitation at 350 nm and emission at 455 nm was used for fluorescence measurement using Tecan Infinite M Plex microplate reader (Männedorf, Switzerland).

[1] = test system: MCF-7 cells transfected with luciferase reporter gene; settings: read-out: EC50 of luciferase expression; cited from earlier work
[2] = test system: human endometrial adenocarcinoma cells (Ishikawa); settings: read-out: IC50, suppression of E2-induced expression of alkaline phosphatase; cited from earlier work
[3] = test system: human endometrial adenocarcinoma cells (Ishikawa); settings: E2-induced; cited from earlier work
[4] = 100–1000 nM (as in conclusions)

T2 sequence (Q92731 whole entry): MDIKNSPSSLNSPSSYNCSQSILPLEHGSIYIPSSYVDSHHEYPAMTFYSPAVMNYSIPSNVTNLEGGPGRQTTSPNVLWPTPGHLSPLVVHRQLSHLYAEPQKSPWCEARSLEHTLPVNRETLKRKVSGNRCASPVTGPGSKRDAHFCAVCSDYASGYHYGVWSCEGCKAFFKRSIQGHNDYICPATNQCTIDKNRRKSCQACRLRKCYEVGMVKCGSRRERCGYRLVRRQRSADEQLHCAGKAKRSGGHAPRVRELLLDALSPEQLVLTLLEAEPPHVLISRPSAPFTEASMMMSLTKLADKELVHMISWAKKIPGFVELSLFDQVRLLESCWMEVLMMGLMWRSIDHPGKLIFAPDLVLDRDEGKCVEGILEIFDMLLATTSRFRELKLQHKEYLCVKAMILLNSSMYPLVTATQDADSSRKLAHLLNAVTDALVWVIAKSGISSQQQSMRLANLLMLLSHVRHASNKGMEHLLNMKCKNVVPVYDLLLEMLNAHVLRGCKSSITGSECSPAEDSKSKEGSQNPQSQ

## Oc1ccc(C=Cc2cc(O)c(O)c(O)c2)cc1 [Compound M8, 3,4,4′,5-tetrahydroxystilbene]
Human ERα
  agonistic/antagonistic activity for ERα: agonistic activity
Human ERα; read-out: ERα Agonist EC50
  EC50: 108 ± 10.2 nM
Human ERβ
  agonistic/antagonistic activity for ERβ: could act as ERβ agonists
Human ERβ; read-out: ERβ Agonist EC50
  EC50: 8.1 ± 1.6 nM
Ishikawa cells
  alkaline phosphatase activity of Ishikawa cells: significantly lower compared with the control
  alkaline phosphatase activity / proliferation of Ishikawa cells: stimulated the alkaline phosphatase
MCF-7 cells
  DNA level / DNA synthesis of MCF-7 cells: increased DNA synthesis

## Oc1cc(O)cc(C=Cc2cc(O)c(O)c(O)c2)c1 [Compound M11, 3,3′,4,5,5′-pentahydroxystilbene]
Human ERα
  agonistic/antagonistic activity for ERα: antagonistic activity
Human ERα; read-out: ERα antagonist EC50
  EC50: 1010 ± 30.5 nM
Human ERβ; read-out: ERβ antagonist EC50
  EC50: > 5000 nM
Ishikawa cells
  alkaline phosphatase activity of Ishikawa cells: significantly lower compared with the control
  alkaline phosphatase activity / proliferation of Ishikawa cells: stimulated the alkaline phosphatase
MCF-7 cells
  DNA level / DNA synthesis of MCF-7 cells: significantly lower compared with the control

## Oc1cc(C=Cc2cc(O)c(O)c(O)c2)cc(O)c1O [Compound M12, 3,3′,4,4′,5,5′-hexahydroxystilbene]
Human ERα
  agonistic/antagonistic activity for ERα: antagonistic activity
Human ERα; read-out: ERα antagonist EC50
  EC50: 110 ± 15.5 nM
Human ERβ
  agonistic/antagonistic activity for ERβ: did not show an antagonistic effect
Human ERβ; read-out: ERβ antagonist EC50
  EC50: > 5000 nM
Ishikawa cells
  alkaline phosphatase activity of Ishikawa cells: significantly lower compared with the control
  alkaline phosphatase activity / proliferation of Ishikawa cells: stimulated the alkaline phosphatase

## Oc1ccc(/C=C/c2cc(O)cc(O)c2)cc1 [resveratrol]
Human ERα
  agonistic/antagonistic activity for ERα: agonistic activity
Human ERα; read-out: ERα Agonist EC50
  EC50: 21.2 ± 2.2 nM
Ishikawa cells
  alkaline phosphatase activity of Ishikawa cells: stimulated an increase in the level of the assessed markers
Ishikawa cells; [4]
  proliferation of Ishikawa cells: stimulated the proliferation
MCF-7 cells
  DNA level / DNA synthesis of MCF-7 cells: stimulated an increase in the level of the assessed markers
MCF-7 cells; [4]
  proliferation of MCF-7 cells: stimulated the proliferation
[1]
  EC50: 5000 to 10000 nM
[2]
  IC50: 2300 nM
[3]
  concentration range suppressing progesterone receptor (PR) mRNA levels: 5 to 15 µM
